Key:
[1] = Solubility of rotigotine in hydrophobic adhesives; assay type: physicochemical
[2] = Active-substance stability: rotigotine purity in the cement matrix by gradient HPLC; assay type: physicochemical; settings: hot-melt processing
Experimental: The cement matrix was mixed with 0.1% methane sulfonic acid, agitated, centrifuged and measured. (b3) Analytics of the Active-Substance Stability: […] Column: LiChrosphere 100 CN, 125 mm×4.6 mm, 5 μm. Flow rate: 1.0 mL, column temperature: 40° C. UV detection (2 wavelengths: 272 and 220 nm).

solubility of rotigotine in hydrophobic adhesives such as silicones [1]: soluble in trace amounts only
remains stable under short-term heating to temperatures up to [2]: at least 160 °C
SMILES: CCCN(CCc1cccs1)[C@H]1CCc2c(O)cccc2C1 [rotigotine, (−)-5,6,7,8-tetrahydro-6-[propyl[2-(2-thienyl)ethyl-)amino]-1-naphthol]

Source: US8211462B2, “Hot-melt TTS for administering rotigotine” (UCB Pharma GmbH, priority 2002, dated 2012)
